Read-outs that look alike come from different tables or passages of the source.
Experiments:
[1] = tested on: HCV replicon in Huh7 cells; assay: HCV replicon cell-based assay; set-up: species or system HCV strain 1B; conditions: Hepatitis C virus, Huh-7; HCV replicon, Huh7 cells; read-out: EC50 range
[2] = target: HCV NS3/4A protease complex, BMS strain (UniProt P27958, C1454S/C1711G, species not given/STRAIN_BMS); assay: Recombinant HCV NS3/4A protease complex FRET peptide assay (BMS strain); assay type: biochemical, HCV genotype 1a
Outline: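 Recombinant BMS-strain NS3/4A (His-tagged NS4A with three-lysine tail, E. coli) at 2-3 nM preincubated 1 min with compound, then 2 μM ester-linked NS4A/NS4B-based FRET peptide added. Fluorescence followed in real time ~15 min at 25° C. Percent inhibition from slope of linear fluorescence change versus no-compound control.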

[3] = NS3/4A BMS strain; read-out: IC50 range
[4] = read-out: IC50 range; NS3/4A BMS strain

| Compound | EC50 [1] [nM] | IC50 [2, 3] [nM] | IC50 [2, 4] [nM] |
| --- | --- | --- | --- |
| CC[C@@H]1C[C@]1(NC(=O)[C@@H]1C[C@@H](Oc2nccc3c4c(ccc23)OCCO4)CN1C(=O)[C@@H](NC(=O)OC(C)(C)C)C(C)(C)C)C(=O)NS(=O)(=O)C1CC1 [Compound 290] | < 100 | < 100 | – |
| CC[C@@H]1C[C@]1(NC(=O)[C@@H]1C[C@@H](Oc2ncc(OC)c3ccccc23)CN1C(=O)[C@@H](NC(=O)OC(C)(C)C)C(C)(C)C)C(=O)NS(=O)(=O)C1CC1 [Compound 291] | < 100 | < 100 | – |
| CC[C@@H]1C[C@]1(NC(=O)[C@@H]1C[C@@H](Oc2nccc3c(OC)cccc23)CN1C(=O)[C@@H](NC(=O)OC(C)(C)C)C(C)(C)C)C(=O)NS(=O)(=O)C1CC1 [Compound 292] | 100 to 1000 | < 100 | – |
| CC[C@@H]1C[C@]1(NC(=O)[C@@H]1C[C@@H](Oc2nccc3c(C)cccc23)CN1C(=O)[C@@H](NC(=O)OC(C)(C)C)C(C)(C)C)C(=O)NS(=O)(=O)C1CC1 [Compound 293] | 100 to 1000 | < 100 | – |
| CC[C@@H]1C[C@]1(NC(=O)[C@@H]1C[C@@H](Oc2nccc3c(Cl)cccc23)CN1C(=O)[C@@H](NC(=O)OC(C)(C)C)C(C)(C)C)C(=O)NS(=O)(=O)C1CC1 [Compound 294] | 100 to 1000 | < 100 | – |
| CC[C@@H]1C[C@]1(NC(=O)[C@@H]1C[C@@H](Oc2nccc3c(C(F)(F)F)cccc23)CN1C(=O)[C@@H](NC(=O)OC(C)(C)C)C(C)(C)C)C(=O)NS(=O)(=O)C1CC1 [Compound 295] | 1000 to 10000 | 100 to 1000 | – |
| CC[C@@H]1C[C@]1(NC(=O)[C@@H]1C[C@@H](Oc2nccc3ccc(C)cc23)CN1C(=O)[C@@H](NC(=O)OC(C)(C)C)C(C)(C)C)C(=O)NS(=O)(=O)C1CC1 [Compound 296] | 100 to 1000 | < 100 | – |
| CC[C@@H]1C[C@]1(NC(=O)[C@@H]1C[C@@H](Oc2nccc3cccc(C)c23)CN1C(=O)[C@@H](NC(=O)OC(C)(C)C)C(C)(C)C)C(=O)NS(=O)(=O)C1CC1 [Compound 297] | 1000 to 10000 | 100 to 1000 | – |
| CC[C@@H]1C[C@]1(NC(=O)[C@@H]1C[C@@H](Oc2nccc3cc(OC)c(F)cc23)CN1C(=O)[C@@H](NC(=O)OC(C)(C)C)C(C)(C)C)C(=O)NS(=O)(=O)C1CC1 [Compound 298] | < 100 | < 100 | – |
| CC[C@@H]1C[C@]1(NC(=O)[C@@H]1C[C@@H](Oc2nccc3c(F)c(OC)ccc23)CN1C(=O)[C@@H](NC(=O)OC(C)(C)C)C(C)(C)C)C(=O)NS(=O)(=O)C1CC1 [Compound 299] | 100 to 1000 | < 100 | – |
| CC[C@@H]1C[C@]1(NC(=O)[C@@H]1C[C@@H](Oc2cc3c(Cl)nccc3cc2OC)CN1C(=O)[C@@H](NC(=O)OC(C)(C)C)C(C)(C)C)C(=O)NS(=O)(=O)C1CC1 [Compound 300] | 100 to 1000 | < 100 | – |
| C=CC1C[C@]1(NC(=O)[C@@H]1C[C@@H](Oc2nc(-c3ccccn3)cc3cc(OC)ccc23)CN1C(=O)[C@@H](NC(=O)OC(C)(C)C)C(C)(C)C)C(=O)NS(=O)(=O)C1CC1 (stereo partly drawn) [Compound 320] | < 100 | < 100 | – |
| C=CC1C[C@]1(NC(=O)[C@@H]1C[C@@H](Oc2nc(-c3csc(N(CC)CC)n3)cc3cc(OC)ccc23)CN1C(=O)[C@@H](NC(=O)OC(C)(C)C)C(C)(C)C)C(=O)NS(=O)(=O)C1CC1 (stereo partly drawn) [Compound 321] | 100 to 1000 | < 100 | – |
| C=CC1C[C@]1(NC(=O)[C@@H]1C[C@@H](Oc2nc(-c3csc(N(C)C)n3)cc3cc(OC)ccc23)CN1C(=O)[C@@H](NC(=O)OC(C)(C)C)C(C)(C)C)C(=O)NS(=O)(=O)C1CC1 (stereo partly drawn) [Compound 322] | < 100 | < 100 | – |
| C=CC1C[C@]1(NC(=O)[C@@H]1C[C@@H](Oc2noc3cc(OC)ccc23)CN1C(=O)[C@@H](NC(=O)OC(C)(C)C)C(C)(C)C)C(=O)NS(=O)(=O)C1CC1 (stereo partly drawn) [Compound 323] | 100 to 1000 | < 100 | – |
| C=CC1C[C@]1(NC(=O)[C@@H]1C[C@@H](Oc2nsc3ccccc23)CN1C(=O)[C@@H](NC(=O)OC(C)(C)C)C(C)(C)C)C(=O)NS(=O)(=O)C1CC1 (stereo partly drawn) [Compound 324] | 100 to 1000 | < 100 | – |
| C=CC1C[C@]1(NC(=O)[C@@H]1C[C@@H](Oc2nc(-c3ccncc3)cc3cc(OC)ccc23)CN1C(=O)[C@@H](NC(=O)OC(C)(C)C)C(C)(C)C)C(=O)NS(=O)(=O)C1CC1 (stereo partly drawn) [Compound 325] | < 100 | < 100 | – |
| C=CC1C[C@]1(NC(=O)[C@@H]1C[C@@H](Oc2nc(-c3ccc(N(C)C)cc3)cc3cc(OC)ccc23)CN1C(=O)[C@@H](NC(=O)OC(C)(C)C)C(C)(C)C)C(=O)NS(=O)(=O)C1CC1 (stereo partly drawn) [Compound 326] | < 100 | < 100 | – |
| C=CC1C[C@]1(NC(=O)[C@@H]1C[C@@H](Oc2nc(-c3ccc(N(CC)CC)cc3)cc3cc(OC)ccc23)CN1C(=O)[C@@H](NC(=O)OC(C)(C)C)C(C)(C)C)C(=O)NS(=O)(=O)C1CC1 (stereo partly drawn) [Compound 327] | < 100 | < 100 | – |
| C=CC1C[C@]1(NC(=O)[C@@H]1C[C@@H](Oc2nc(-c3cccnc3)cc3cc(OC)ccc23)CN1C(=O)[C@@H](NC(=O)OC(C)(C)C)C(C)(C)C)C(=O)NS(=O)(=O)C1CC1 (stereo partly drawn) [Compound 328] | < 100 | < 100 | – |

| Compound | EC50 [1] [nM] | IC50 [2, 3] [nM] | IC50 [2, 4] [nM] |
| --- | --- | --- | --- |
| C=CC1C[C@]1(NC(=O)[C@@H]1C[C@@H](Oc2nc(-c3ccccc3N(C)C)cc3cc(OC)ccc23)CN1C(=O)[C@@H](NC(=O)OC(C)(C)C)C(C)(C)C)C(=O)NS(=O)(=O)C1CC1 (stereo partly drawn) [Compound 329] | < 100 | < 100 | – |
| C=CC1C[C@]1(NC(=O)[C@@H]1C[C@@H](Oc2nc(-c3cccc(N(C)C)c3)cc3cc(OC)ccc23)CN1C(=O)[C@@H](NC(=O)OC(C)(C)C)C(C)(C)C)C(=O)NS(=O)(=O)C1CC1 (stereo partly drawn) [Compound 330] | < 100 | < 100 | – |
| C=CC1C[C@]1(NC(=O)[C@@H]1C[C@@H](Oc2noc3ccccc23)CN1C(=O)[C@@H](NC(=O)OC(C)(C)C)C(C)(C)C)C(=O)NS(=O)(=O)C1CC1 (stereo partly drawn) [Compound 334] | 100 to 1000 | 100 to 1000 | – |
| C=CC1C[C@]1(NC(=O)[C@@H]1C[C@@H](Oc2nccc(-c3ccccc3)n2)CN1C(=O)[C@@H](NC(=O)OC)C(C)(C)C)C(=O)NS(=O)(=O)C1CC1 (stereo partly drawn) [Compound 335] | 1000 to 10000 | < 100 | – |
| C=CC1C[C@]1(NC(=O)[C@@H]1C[C@@H](Oc2nccc(-c3ccccn3)n2)CN1C(=O)[C@@H](NC(=O)OC)C(C)(C)C)C(=O)NS(=O)(=O)C1CC1 (stereo partly drawn) [Compound 336] | 1000 to 10000 | 100 to 1000 | – |
| C=CC1C[C@]1(NC(=O)[C@@H]1C[C@@H](Oc2nccc(-c3cccs3)n2)CN1C(=O)[C@@H](NC(=O)OC)C(C)(C)C)C(=O)NS(=O)(=O)C1CC1 (stereo partly drawn) [Compound 337] | 1000 to 10000 | 100 to 1000 | – |
| C=CC1C[C@]1(NC(=O)[C@@H]1C[C@@H](Oc2nccc(-c3cccs3)n2)CN1C(=O)[C@@H](NC(=O)CC1CC1)C(C)(C)C)C(=O)NS(=O)(=O)C1CC1 (stereo partly drawn) [Compound 338] | 1000 to 10000 | < 100 | – |
| C=CC1C[C@]1(NC(=O)[C@@H]1C[C@@H](Oc2nccc(-c3ccco3)n2)CN1C(=O)[C@@H](NC(=O)CC1CC1)C(C)(C)C)C(=O)NS(=O)(=O)C1CC1 (stereo partly drawn) [Compound 339] | 1000 to 10000 | < 100 | – |
| C=CC1C[C@]1(NC(=O)[C@@H]1C[C@@H](Oc2nccc(-c3nccs3)n2)CN1C(=O)[C@@H](NC(=O)CC1CC1)C(C)(C)C)C(=O)NS(=O)(=O)C1CC1 (stereo partly drawn) [Compound 340] | 10000 to 100000 | < 100 | – |
| C=CC1C[C@]1(NC(=O)[C@@H]1C[C@@H](COc2cccc(Br)c2)CN1C(=O)[C@@H](NC(=O)OC)C(C)(C)C)C(=O)NS(=O)(=O)C1CC1 (stereo partly drawn) [Compound 345] | 10000 to 100000 | 1000 to 10000 | – |
| C=CC1C[C@]1(NC(=O)[C@@H]1C[C@@H](COc2cncc(-c3ccsc3)c2)CN1C(=O)[C@@H](NC(=O)OC)C(C)(C)C)C(=O)NS(=O)(=O)C1CC1 (stereo partly drawn) [Compound 347] | 10000 to 100000 | – | 100 to 1000 |
| C=CC1C[C@]1(NC(=O)[C@@H]1C[C@@H](COc2ccnc(-c3cccs3)c2)CN1C(=O)[C@@H](NC(=O)OC)C(C)(C)C)C(=O)NS(=O)(=O)C1CC1 (stereo partly drawn) [Compound 350] | 10000 to 100000 | – | 100 to 1000 |
| C=CC1C[C@]1(NC(=O)[C@@H]1C[C@@H](COc2cccc(-c3ccoc3)n2)CN1C(=O)[C@@H](NC(=O)OC)C(C)(C)C)C(=O)NS(=O)(=O)C1CC1 (stereo partly drawn) [Compound 355] | 10000 to 100000 | 100 to 1000 | – |
| C=CC1C[C@]1(NC(=O)[C@@H]1C[C@@H](COc2cccc(-c3cccs3)n2)CN1C(=O)[C@@H](NC(=O)OC)C(C)(C)C)C(=O)NS(=O)(=O)C1CC1 (stereo partly drawn) [Compound 356] | 1000 to 10000 | 100 to 1000 | – |
| C=CC1C[C@]1(NC(=O)[C@@H]1C[C@@H](Nc2nccc3ccccc23)CN1C(=O)[C@@H](NC(=O)OC(C)(C)C)C(C)(C)C)C(=O)NS(=O)(=O)C1CC1 (stereo partly drawn) [Compound 357] | 100 to 1000 | – | < 100 |
| C=C[C@@H]1C[C@]1(NC(=O)[C@@H]1C[C@@H](Oc2cc(-c3csc(NC(C)C)n3)nc3cc(OC)ccc23)CN1C(=O)[C@@H](NC(=O)OC(C)(C)C)C(C)(C)C)C(=O)NS(=O)(=O)C1CC1 [Compound 370] | 1000 to 10000 | – | 100 to 1000 |
| C=C[C@@H]1C[C@]1(NC(=O)[C@@H]1C[C@@H](Oc2ccnc3cc(Cl)ccc23)CN1C(=O)[C@@H](NC(=O)OC(C)(C)C)C(C)(C)C)C(=O)NS(=O)(=O)C1CC1 [Compound 371] | < 100 | < 100 | – |
| C=C[C@@H]1C[C@]1(NC(=O)[C@@H]1C[C@@H](Oc2ccnc3cc(Cl)ccc23)CN1C(=O)[C@@H](NC(=O)OC1CCCC1)C(C)(C)C)C(=O)NS(=O)(=O)C1CC1 [Compound 372] | < 100 | < 100 | – |
| C=C[C@@H]1C[C@]1(NC(=O)[C@@H]1C[C@@H](Oc2cc(C3CC3)nc3cc(OC)ccc23)CN1C(=O)[C@@H](NC(=O)OC(C)(C)C)C(C)(C)C)C(=O)NS(=O)(=O)C1CC1 [Compound 373] | < 100 | < 100 | – |
